Assay results published in PubChem BioAssay (NCI).
“And” between values parts separate entries of the source, which are not always exact repeats. Equal entries are not always repeated.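 Protocol summary: plate cells (96-well), add compound at 5 concentrations, incubate 48 h, interpolate endpoints linearly. Here, GI50 denotes the concentration required for 50% inhibition of growth. At the TGI there is no net growth.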

Assays:
Test in all cases: growth of human tumour cells (NCI), 48 h
[1] = system: T-47D breast
[2] = system: NCI/ADR-RES ovarian
[3] = system: MCF7 breast
[4] = system: MDA-MB-231 breast
[5] = system: DU-145 prostate
[6] = system: DLD-1 colon
[7] = system: KM20L2 colon
[8] = system: M19-MEL melanoma

COc1cc2ncnc(Nc3ccc(F)c(Cl)c3)c2cc1NC(=O)/C=C/CN1CCCCC1
GI50 [1]: 0.381 µM and 0.0625 µM | TGI [1]: 3.67 µM and 4.9 µM | GI50 [2]: 1.48 µM and 1.12 µM | TGI [2]: 7.15 µM and 6.37 µM | GI50 [3]: 2000 nM and 2030 nM | TGI [3]: 6.32 µM and 6.56 µM | GI50 [4]: 1.3 µM and 1.53 µM | TGI [4]: 3.2 µM and 4 µM | GI50 [5]: 0.365 µM and 0.401 µM | TGI [5]: 11.4 µM and > 10 µM

COC(=O)c1nc(Cl)nc(Cl)c1Cl
TGI [1]: 54.2 µM | TGI [2]: > 100 µM | TGI [3]: 55.1 µM | TGI [4]: 42.9 µM | TGI [5]: > 100 µM

OCCNc1ncnc2c1ncn2Cc1cccc(COc2cccc(OCc3cccc(Cn4cnc5c(NCCO)ncnc54)c3)c2)c1
GI50 [1]: 16 µM | TGI [1]: 33.4 µM | GI50 [2]: > 100 µM | TGI [2]: > 100 µM | GI50 [3]: 12600 nM | TGI [3]: 26.1 µM | GI50 [4]: 14.5 µM | TGI [4]: 29.3 µM | GI50 [5]: 16.7 µM | TGI [5]: 32.5 µM

Cn1c2c(c3ccc(Cl)c(Cl)c31)C(C#N)C1(CCNCC1)NC2=O (stereo unspecified)
GI50 [1]: 1.72 µM | TGI [1]: 3.94 µM | GI50 [2]: 3.72 µM | TGI [2]: 12.2 µM | GI50 [3]: 1450 nM | TGI [3]: 3.01 µM | GI50 [4]: 1.54 µM | TGI [4]: 3.46 µM | GI50 [5]: 1.56 µM | TGI [5]: 3.03 µM

Cc1sc2nc3c4ccccc4c(NCCCN(C)C)nn3c(=O)c2c1C
GI50 [1]: 12.7 µM | TGI [1]: 26.1 µM | GI50 [2]: 10.7 µM | TGI [2]: 24.8 µM | GI50 [3]: 1430 nM | TGI [3]: 5.63 µM | GI50 [4]: 2.15 µM | TGI [4]: 7.53 µM | GI50 [5]: 4.4 µM | TGI [5]: 14.5 µM

O=c1cccc(C2CC(CO)C3CCCCN3C2)[nH]1 (stereo unspecified)
TGI [1]: > 100 µM | TGI [2]: > 100 µM | TGI [3]: > 100 µM | TGI [4]: > 100 µM | TGI [5]: > 100 µM

CCN(CC)C(=S)SC
TGI [1]: > 100 µM | TGI [2]: > 100 µM | TGI [3]: > 100 µM | TGI [4]: > 100 µM | TGI [5]: > 100 µM

COc1cc(C(=O)Nc2cc3c(cc2Oc2cc(C)cc(C)c2)C(=O)N(C)[C@@H](CC(=O)N(C)O)C(=O)N3)c(Br)c(OC)c1OC
GI50 [1]: < 0.00333 µM | TGI [1]: < 0.00333 µM | GI50 [2]: 0.777 µM | TGI [2]: 7.34 µM | GI50 [3]: < 3.33 nM | TGI [3]: 0.00821 µM | GI50 [4]: < 0.00333 µM | TGI [4]: < 0.00333 µM | GI50 [5]: < 0.00333 µM | TGI [5]: 0.00428 µM

CN(C)/N=C(/c1nc2ccc(Cl)cc2[nH]c1=O)C(O)c1ccc(C(O)/C(=N\N(C)C)c2nc3ccc(Cl)cc3[nH]c2=O)cc1 (stereo unspecified)
TGI [6]: > 100 µM | TGI [7]: > 100 µM | TGI [8]: > 100 µM

CCC[n+]1cc2cc(OC)c(OC)cc2c2c1-c1cc3c(cc1C2)OCO3
GI50 [1]: 0.583 µM | TGI [1]: 3.92 µM | GI50 [2]: 35.2 µM | TGI [2]: > 100 µM | GI50 [3]: 2590 nM | TGI [3]: > 33.8 µM | GI50 [4]: 4.71 µM | TGI [4]: 15.4 µM | GI50 [5]: 7.82 µM | TGI [5]: 38.6 µM

COc1ccc2[nH]c(O)c(C(=Nc3ccc(N(C)C(=O)CN4CCN(C)CC4)cc3)c3ccccc3)c2c1
GI50 [1]: 3.54 µM | TGI [1]: 15.9 µM | GI50 [2]: 11.1 µM | TGI [2]: 29.7 µM | GI50 [3]: 725 nM | TGI [3]: 3.62 µM | GI50 [4]: 1.88 µM | TGI [4]: 5.17 µM | GI50 [5]: 2.66 µM | TGI [5]: 11.8 µM

COc1cc(-c2cn(-c3ccc(Cl)c(Cl)c3)c(=O)n2C(C)=O)cc(OC)c1OC
GI50 [1]: 18.4 µM | TGI [1]: 48.1 µM | GI50 [2]: 13.5 µM | TGI [2]: 31.7 µM | GI50 [3]: 14700 nM | TGI [3]: 37.7 µM | GI50 [4]: 10.4 µM | TGI [4]: 26.2 µM | GI50 [5]: 5.32 µM | TGI [5]: 18.2 µM

CCOC(=O)/C=C/C1=C(c2cccs2)c2ccccc2CC1
GI50 [1]: 36.5 µM | TGI [1]: > 100 µM | GI50 [2]: 21.1 µM | TGI [2]: 55.9 µM | GI50 [3]: 36100 nM | TGI [3]: > 100 µM | GI50 [4]: 20.5 µM | TGI [4]: 64.7 µM | GI50 [5]: 22.6 µM | TGI [5]: 58.6 µM

COc1ccc(Cn2cc3c(c2)-c2oncc2CC3)cc1
GI50 [1]: 5.09 µM | TGI [1]: > 100 µM | GI50 [2]: 2.86 µM | TGI [2]: 9.85 µM | GI50 [3]: 3070 nM | TGI [3]: > 100 µM | GI50 [4]: 9.47 µM | TGI [4]: > 100 µM | GI50 [5]: 4.46 µM | TGI [5]: 34.5 µM

O=C1C(c2ccccc2)=[N+]([O-])c2ccccc21
TGI [1]: 7.25 µM | TGI [2]: 36.3 µM | TGI [3]: 4.88 µM | TGI [4]: 25.4 µM | TGI [5]: 32.4 µM

Cc1cc(S(=O)(=O)NC#N)c(S/C(=N\Nc2ccc([N+](=O)[O-])cc2)c2ccc(Cl)cc2)cc1Cl
GI50 [1]: 3.89 µM | TGI [1]: 42.6 µM | GI50 [3]: 15900 nM | TGI [3]: 42.6 µM | GI50 [5]: 17.6 µM | TGI [5]: > 100 µM

Fc1cc2[nH]ncc2c2c3c(c(-c4cn[nH]c4C(F)(F)F)nc12)C1CCC3C1 (stereo unspecified)
GI50 [1]: 0.85 µM | TGI [1]: 3.79 µM | GI50 [2]: 2.4 µM | TGI [2]: 16.1 µM | GI50 [3]: 815 nM | TGI [3]: 5.57 µM | GI50 [4]: 0.724 µM | TGI [4]: 3.45 µM | GI50 [5]: 1.12 µM | TGI [5]: 7.52 µM

Cc1cc2c(cc1C)N(C(=O)CCl)CCN2C(=O)CCl
GI50 [1]: 1.4 µM | TGI [1]: 3.94 µM | GI50 [2]: 0.746 µM | TGI [2]: 5.9 µM | GI50 [3]: 451 nM | TGI [3]: 2.02 µM | GI50 [4]: 1.7 µM | TGI [4]: 3.92 µM | GI50 [5]: 1.54 µM | TGI [5]: 2.9 µM

Cc1cc(Cl)ccc1Nc1nc(C(F)(F)F)ccc1C(=O)N/N=C/c1ccc([N+](=O)[O-])cc1
GI50 [1]: 2.39 µM | TGI [1]: 11.6 µM | GI50 [2]: 1.98 µM | TGI [2]: > 32.5 µM | GI50 [3]: 1580 nM | TGI [3]: 6.93 µM | GI50 [4]: 1.86 µM | TGI [4]: 5.78 µM | GI50 [5]: 1.78 µM

COc1ccc(-c2ccc(-c3ccc(C(=N)N)cn3)o2)cc1
GI50 [1]: 5.13 µM | TGI [1]: 21 µM | GI50 [2]: 14.1 µM | TGI [2]: 30.7 µM | GI50 [3]: 3170 nM | TGI [3]: 13.4 µM | GI50 [4]: 3.34 µM | TGI [4]: 15.3 µM | GI50 [5]: 11.3 µM | TGI [5]: 24.7 µM

Cc1nc2sccn2c1-c1csc(Nc2cccc(Cl)c2C)n1
GI50 [2]: 3.45 µM | TGI [2]: 45.2 µM | GI50 [3]: 3340 nM | TGI [3]: 25.6 µM | GI50 [4]: 3.62 µM | TGI [4]: 20.2 µM | GI50 [5]: 8.45 µM | TGI [5]: 72 µM

CCn1c(-c2nonc2N)nc2c(C#CC(C)(C)O)nc(OCCNC)cc21
GI50 [1]: 3.83 µM | TGI [1]: > 25 µM | GI50 [2]: > 25 µM | TGI [2]: > 25 µM | GI50 [3]: 4900 nM | TGI [3]: > 25 µM | GI50 [4]: 8.9 µM | TGI [4]: > 25 µM | GI50 [5]: 8.53 µM | TGI [5]: > 25 µM

COc1ccccc1/C=C/C(=O)c1ccccc1
GI50 [1]: 16.8 µM | TGI [1]: 63.3 µM | GI50 [2]: 5.75 µM | TGI [2]: > 38.2 µM | GI50 [3]: 1560 nM | TGI [3]: 10.2 µM | GI50 [4]: 14.4 µM | TGI [4]: 35.2 µM | GI50 [5]: 5.23 µM | TGI [5]: 16.3 µM
